Measured values from publication PMC7730238, “Temporin-Like Peptides Show Antimicrobial and Anti-Biofilm Activities against Streptococcus mutans with Reduced Hemolysis” (Molecules, 2020).
No end group written: not given here.

Tests used:
[1] = test system: Escherichia coli (ATCC 25922); format: cell-based; conditions: for MIC: ATCC 25922; for MBC: ATCC 25922, 24 h
Source text: (§1) The strains were used in the experiments, including Gram-positive bacteria Staphylococcus aureus (ATCC 25923), Bacillus subtilis (ATCC 6633), Streptococcus mutans (ATCC 25175), Methicillin-resistant Staphylococcus aureus (ATCC 43300), Methicillin-resistant Staphylococcus aureus 1–3 (clinically isolated, number 1–3), Gram-negative bacteria Escherichia coli (ATCC 25922), E. coli (D 31), Pseudomonas aeruginosa (ATCC 15442), P. aeruginosa PAO1 (wild type), and the fungus Candida albicans (ATCC 10231). S. mutans was cultured in Brain Heart Infusion Broth (BHI, Beijing Land Bridge, China) under anaerobic condition; C. albicans was grown in Sabouraud Dextrose Broth (SDB, HuanKai Microbial, Guangzhou, China); and the other bacterial strains were grown in Tryptic Soy Broth (TSB, HuanKai Microbial, Guangzhou, China). All bacteria and fungi were cultivated to the logarithmic phase at 37 °C before experiments were performed.
(§2) The antimicrobial activities of the peptides were measured by the two-fold dilution method. Each strain was inoculated in the medium and cultivated to the logarithmic phase. A series of diluted peptides (concentrations of 3.1–100 μM, 50 μL) were prepared in a 96-well plate (Corning, New York, NY, USA), and the same volume of the bacterial suspension (the final concentration of 1 × 10^6 CFU/mL) was added. After incubation at 37 °C for 18–24 h, the absorbance at 600 nm was measured by using a microplate reader (Multiskan Spectrum, BioTek, Winuski, VT, USA). […] All tests were performed in triplicate independent experiments.
(§3) From the MIC measuring plates, 50 μL of bacteria suspension in the presence of peptides when the concentrations were equal and up to MICs was spread on the BHI agar medium, and incubated at 37 °C for 24 h. The peptide concentration with no bacterial growth was defined as MBC [33].

[2] = test system: Candida albicans (ATCC 10231); format: cell-based; conditions: for MIC: ATCC 10231; for MBC: ATCC 10231, 24 h
Source text: as §1, §2, §3

[3] = test system: Staphylococcus aureus (ATCC 25923); format: cell-based; conditions: for MIC: ATCC 25923; for MBC: ATCC 25923, 24 h
Source text: as §1, §2, §3

[4] = test system: Streptococcus mutans (ATCC 25175); format: cell-based; conditions: for MIC: ATCC 25175; for MBC: ATCC 25175, 24 h
Source text: as §1, §2, §3

[5] = test system: Pseudomonas aeruginosa (ATCC 15442); format: cell-based; conditions: for MIC: ATCC 15442; for MBC: ATCC 15442, 24 h
Source text: as §1, §2, §3

[6] = test system: MRSA-1, methicillin-resistant S. aureus (clinically isolated, No.1); format: cell-based, Staphylococcus aureus; conditions: for MIC: -1, methicillin-resistant (clinically isolated, No.1); for MBC: -1, methicillin-resistant (clinically isolated, No.1, 24 h)
Source text: as §1, §2, §3

[7] = test system: methicillin-resistant S. aureus (ATCC 43300); format: cell-based, Staphylococcus aureus; conditions: for MIC: ATCC 43300; for MBC: ATCC 43300, 24 h
Source text: as §1, §2, §3

[8] = test system: MRSA-3, methicillin-resistant S. aureus (clinically isolated, No.3); format: cell-based, Staphylococcus aureus; conditions: for MIC: -3, methicillin-resistant (clinically isolated, No.3); for MBC: -3, methicillin-resistant (clinically isolated, No.3, 24 h)
Source text: as §1, §2, §3

[9] = test system: MRSA-2, methicillin-resistant S. aureus (clinically isolated, No.2); format: cell-based, Staphylococcus aureus; conditions: for MIC: -2, methicillin-resistant (clinically isolated, No.2); for MBC: -2, methicillin-resistant (clinically isolated, No.2, 24 h)
Source text: as §1, §2, §3

[10] = test system: P. aeruginosa PAO1 (wild type); format: cell-based, Pseudomonas aeruginosa; conditions: for MIC: PAO1; for MBC: PAO1, 24 h
Source text: as §1, §2, §3

[11] = test system: Bacillus subtilis (ATCC 6633); format: cell-based; conditions: for MIC: ATCC 6633; for MBC: ATCC 6633, 24 h
Source text: as §1, §2, §3

[12] = test system: S. mutans mature biofilms; assay: Mature biofilm eradication, crystal violet; format: cell-based, Streptococcus mutans; conditions: 24 h mature S. mutans biofilms, 24 h treatment, CV staining, absorbance 590 nm
Experimental: To evaluate the ability of the peptides to eradicate the mature biofilms of S. mutans, the bacteria (the final concentration of 1 × 10^6 CFU/mL) were seeded in a flat bottom 96-well plate for 24 h to obtain the mature biofilms. The planktonic bacteria were washed away, and the peptides with the concentrations of 3.1–50 μM were added. After treatment for 24 h, CV was used for staining and quantification as described above. The biofilms untreated with the peptides served as the negative control. MBEC50 was defined as the lowest peptide concentration that removed 50% of the mature biofilm.

[13] = test system: E. coli (D31), anti-streptomycin strain; format: cell-based, Escherichia coli; conditions: 37 °C; for MIC: TSB, 1 × 10^6 CFU/mL, 18–24 h, absorbance 600 nm, triplicate, first value of cell; for MBC: plated from MIC wells on agar, 24 h, no growth, second value of cell
Source text: as §1, §2, §3

S. mutans biofilms = format: cell-based, Streptococcus mutans; conditions: S. mutans in BHI with 1% sucrose, 24 h anaerobic, CV staining, absorbance 590 nm
Experimental: CV was used to detect the effects of the peptides on the formation of biofilm and the eradication of mature biofilm. 100 μL of S. mutans in the logarithmic phase was diluted in BHI (containing 1% sucrose) to the concentration of 2 × 10^6 CFU/mL. The suspensions were added to the equal volume of the peptides (the final concentrations of 0.8–12.5 μM). After incubation at 37 °C under anaerobic conditions for 24 h, the supernatant was discarded. The plate was irrigated with PBS carefully to wash away the planktonic bacteria. After fixing with anhydrous methanol for 15 min, 0.5% CV was added to each well for staining the biofilms. The excess CV was washed away by PBS (pH 7.2), and the bound CV was dissolved with anhydrous methanol. A microplate reader (Multiskan Spectrum, BioTek, Winuski, VT, USA) was used to measure the absorbance value of 590 nm. MBIC50 was defined as the lowest peptide concentration that inhibited 50% of biofilm formation.

[14] = test system: Human red blood cells (hRBCs); format: cell-based
Experimental: The hemolytic toxicity of the peptides was determined as described. Human red blood cells (hRBCs) were washed with phosphate-buffered saline (PBS, pH 7.2) and centrifuged at 1000× g for 10 min at 4 °C until the supernatant was clear. 4% hRBCs and an equal volume of the peptides with different concentrations were incubated at 37 °C for 1 h. After incubation, the supernatant was collected by centrifugation, and 150 μL was transferred to a new 96-well plate (Corning, New York, NY, USA). The absorbance at 450 nm was measured. The 0.1% Triton X-100 was used as the positive control, and PBS was used as the negative control. The minimum hemolysis concentration (MHC) was defined as the lowest concentration of peptide that causes 10% hemolysis, and HL50 was the lowest concentration that causes 50% hemolysis. CSI was defined as the ratio of HL50 to MIC [31].

Sequence: FLQRIIGALGRLF [GHaR]
- MIC [1]: 6.2 µM
- MBC [1]: 6.2 µM
- MIC [2]: 12.5 µM
- MBC [2]: 50 µM
- MIC [3]: 1.6 µM
- MBC [3]: 1.6 µM
- MIC [4]: 3.1 µM
- MBC [4]: 6.2 µM
- MIC [5]: 6.2 µM
- MBC [5]: 6.2 µM
- MIC [6]: 3.1 µM
- MBC [6]: 25 µM
- MIC [7]: 3.1 µM
- MBC [7]: 3.1 µM
- MIC [8]: 3.1 µM
- MBC [8]: 6.2 µM
- MIC [9]: 6.2 µM
- MBC [9]: 12.5 µM
- MIC [10]: 25 µM
- MBC [10]: 50 µM

Sequence: FLQRIIRALGRLF [GHaR7R]
- MIC [1]: 3.1 µM
- MBC [1]: 12.5 µM
- MIC [2]: 25 µM
- MBC [2]: 25 µM
- MIC [3]: 3.1 µM
- MBC [3]: 3.1 µM
- MIC [4]: 6.2 µM
- MBC [4]: 12.5 µM
- MIC [11]: > 50 µM
- MBC [11]: > 50 µM
- MIC [5]: > 50 µM
- MBC [5]: > 50 µM
- MBEC50 (lowest peptide concentration that removed 50% of the mature biofilm) [12]: 25 µM
- MIC [6]: 6.2 µM
- MBC [6]: 25 µM
- MIC [7]: 3.1 µM
- MBC [7]: 6.2 µM
- MIC [8]: 6.2 µM
- MBC [8]: 25 µM
- MIC [9]: 6.2 µM
- MBC [9]: 50 µM
- MIC [13]: 12.5 µM
- MBC [13]: 50 µM
- MBIC50 (lowest peptide concentration that inhibited 50% of biofilm formation) (S. mutans biofilms): 6.2 µM
- MIC [10]: > 50 µM
- MBC [10]: > 50 µM

Sequence: FLQRIIGRLGRLF [GHaR8R]
- MIC [1]: 3.1 µM
- MBC [1]: 3.1 µM
- MIC [2]: 12.5 µM
- MBC [2]: 12.5 µM
- MIC [3]: 1.6 to 3.1 µM
- MBC [3]: 3.1 µM
- MIC [4]: 6.2 µM
- MBC [4]: 6.2 µM
- MIC [11]: 12.5 µM
- MBC [11]: 12.5 µM
- MIC [5]: 50 µM
- MBC [5]: > 50 µM
- MBEC50 (lowest peptide concentration that removed 50% of the mature biofilm) [12]: 12.5 µM
- time to complete eradication: < 15 min
- MIC [6]: 6.2 µM
- MBC [6]: 6.2 µM
- MIC [7]: 3.1 µM
- MBC [7]: 3.1 µM
- MIC [8]: 6.2 µM
- MBC [8]: 12.5 µM
- MIC [9]: 3.1 µM
- MBC [9]: 12.5 µM
- MIC [13]: 12.5 µM
- MBC [13]: 25 µM
- HL50 relative to that of GHaR [14]: 1–5 times higher
- MBIC50 (lowest peptide concentration that inhibited 50% of biofilm formation) (S. mutans biofilms): 1.6 µM
- MIC [10]: 6.2 µM
- MBC [10]: 12.5 µM

Sequence: FLQRIIGARGRLF [GHaR9R]
- MIC [1]: > 50 µM
- MBC [1]: > 50 µM
- MIC [2]: > 50 µM
- MBC [2]: > 50 µM
- MIC [3]: 6.2 µM
- MBC [3]: 12.5 µM
- MIC [4]: > 50 µM
- MBC [4]: > 50 µM
- MIC [11]: > 50 µM
- MBC [11]: > 50 µM
- MIC [5]: > 50 µM
- MBC [5]: > 50 µM
- MIC [6]: > 50 µM
- MBC [6]: > 50 µM
- MIC [7]: > 50 µM
- MBC [7]: > 50 µM
- MIC [8]: > 50 µM
- MBC [8]: > 50 µM
- MIC [9]: > 50 µM
- MBC [9]: > 50 µM
- MIC [10]: > 50 µM
- MBC [10]: > 50 µM

Sequence: FLQRIIGAWGRLF [GHaR9W]
- MIC [1]: 12.5 µM
- MBC [1]: 12.5 µM
- MIC [2]: 25 µM
- MBC [2]: 25 µM
- MIC [3]: 3.1 µM
- MBC [3]: 6.2 µM
- MIC [4]: 6.2 µM
- MBC [4]: 6.2 µM
- MIC [5]: > 50 µM
- MBC [5]: > 50 µM
- MIC [6]: 6.2 µM
- MBC [6]: 12.5 µM
- MIC [7]: 6.2 µM
- MBC [7]: 12.5 µM
- MIC [8]: 6.2 µM
- MBC [8]: 12.5 µM
- MIC [9]: 6.2 µM
- MBC [9]: 12.5 µM
- HL50 relative to that of GHaR [14]: 1–5 times higher
- MIC [10]: 25 µM
- MBC [10]: 50 µM

Sequence: FLQRIRGALGRLF [GHaR6R]
- MIC [1]: 12.5 µM
- MBC [1]: 12.5 µM
- MIC [2]: 50 µM
- MBC [2]: 50 µM
- MIC [3]: 3.1 µM
- MBC [3]: 12.5 µM
- MIC [4]: 12.5 µM
- MBC [4]: 12.5 µM
- MIC [11]: 25 µM
- MBC [11]: 50 µM
- MIC [5]: > 50 µM
- MBC [5]: > 50 µM
- MBEC50 (lowest peptide concentration that removed 50% of the mature biofilm) [12]: 25 µM
- time to complete eradication: < 15 min
- MIC [6]: 12.5 µM
- MBC [6]: 25 µM
- MIC [7]: 6.2 µM
- MBC [7]: 12.5 µM
- MIC [8]: 6.2 µM
- MBC [8]: 25 µM
- MIC [9]: 12.5 µM
- MBC [9]: 25 µM
- MIC [13]: 25 µM
- MBC [13]: 50 µM
- HL50 relative to that of GHaR [14]: 1–5 times higher
- MBIC50 (lowest peptide concentration that inhibited 50% of biofilm formation) (S. mutans biofilms): 6.2 µM
- MIC [10]: 3.1 µM
- MBC [10]: 25 µM
